Results: ChEMBL document CHEMBL3112501, “Design, synthesis and preliminary bioactivity studies of 1,2-dihydrobenzo[d]isothiazol-3-one-1,1-dioxide hydroxamic acid derivatives as novel histone deacetylase inhibitors” (Bioorg Med Chem, 2014)

Molecular target: Histone deacetylase (HDAC1 and HDAC2) (Homo sapiens, UniProt Q13547+Q92769)
Assay: Inhibition of HDAC1/2 in human HeLa cell extracts using acetylated histone peptide as substrate after 30 mins
Format: protein assay

- IC50: 244 nM
SMILES: O=C(CCCCCN1C(=O)c2ccc(NC(=O)Cc3ccccc3)cc2S1(=O)=O)NO
